Laboratory results: publication PMC6112376, “Comprehensive Analyses and Prioritization of Tox21 10K Chemicals Affecting Mitochondrial Function by in-Depth Mechanistic Studies” (Environmental Health Perspectives, 2018)
Where two headings read alike, the source gives them in different places.

Legend:
HepG2 cells [1] = settings: for IC50: read-out: MMP assays IC50 (µM) HepG2
HepG2 cells [2] = settings: cited from earlier work
rat primary hepatocytes = test: MMP assay in rat primary hepatocytes; settings: for IC50: read-out: MMP assays IC50 (µM) Rat Hepatocytes
[3] = HepG2 cells, single number from one experiment
[4] = read-out: MMP assays IC50 (µM) qHTS-HepG2
[5] = rat hepatocytes, mean ± SD of three experiments
[6] = read-out: MMP assays IC50 (µM), qHTS-HepG2

Molecule | MMP assays efficacy (%) HepG2 (HepG2 cells [1]; [3]) | IC50 (HepG2 cells [1]; [3]) | MMP assays efficacy (%) qHTS-HepG2 (HepG2 cells [2]) | IC50 (HepG2 cells [2]; [4]) | MMP assays efficacy (%) Rat Hepatocytes (rat primary hepatocytes; [5]) | IC50 (rat primary hepatocytes; [5]) | MMP assays IC50 (µM) HepG2 (HepG2 cells [1]; [3]) | MMP assays IC50 (µM) qHTS-HepG2 (HepG2 cells [2]) | MMP assays IC50 (µM) Rat Hepatocytes (rat primary hepatocytes; [5]) | IC50 (HepG2 cells [2]; [6]) | IC50 (rat primary hepatocytes; Rattus norvegicus, Hepatocyte) | MMP assays efficacy (%) HepG2 (HepG2 cells [1]) | IC50 (HepG2 cells [1]) | IC50 (rat primary hepatocytes) | MMP assays IC50 (µM) Rat Hepatocytes (rat primary hepatocytes)
Oc1ccc2cc(SSc3ccc4cc(O)ccc4c3)ccc2c1 [6-Hydroxy-2-naphthyl disulfide] | -98% | 28.2 µM | -110±7% | 33.7 ± 3.64 µM | -68±46% | 39.8 µM | – | – | – | – | – | – | – | – | –
CCCCCCCCOc1ccc(C(=O)O)cc1 [4-Octyloxybenzoic acid] | inactive | – | -100±24% | 39.6 ± 31.3 µM | -57±30% | 48 ± 11.6 µM | inactive | – | – | – | – | – | – | – | –
CN(C)C(=O)Nc1ccccc1 [Fenuron] | inactive | – | inactive | – | inactive | – | inactive | inactive | inactive | – | – | – | – | – | –
Nc1ccc2cc3ccc(N)cc3nc2c1.Nc1ccc2cc3ccc(N)cc3nc2c1.O=S(=O)(O)O [Proflavin hemisulfate] | -95% | 3.46 µM | -115±21% | – | -94±11% | 11.6 ± 5.45 µM | – | – | – | 3.22 ± 0.82 µM | – | – | – | – | –
CC(C)(c1cc(Br)c(OCCO)c(Br)c1)c1cc(Br)c(OCCO)c(Br)c1 | -99% | 11 µM | -97±15% | 6.21 ± 0.42 µM | -88±17% | 32.8 ± 2.67 µM | – | – | – | – | – | – | – | – | –
Cl.Cl.Nc1ccc(O)c(N)c1 [2,4-Diaminophenol dihydrochloride] | inactive | – | -58±5% | 3.77 ± 1.06 µM | inactive | – | inactive | – | inactive | – | – | – | – | – | –
O=C([O-])c1cc(=O)c2c3nc4ccccc4oc-3cc(=O)c2[nH]1.[Na+] [Pirenoxine sodium] | inactive | – | -54±10% | – | inactive | – | inactive | – | inactive | 21.1 ± 17.8 µM | – | – | – | – | –
O=C1c2c(O)ccc(Nc3ccc(CCO)cc3)c2C(=O)c2c([N+](=O)[O-])ccc(O)c21 [C.I. Disperse blue 27] | -119% | 25.1 µM | -86±8% | 2.34 ± 0.87 µM | -72±24% | 32.5 ± 10.4 µM | – | – | – | – | – | – | – | – | –
Verteporfin | -127% | 8.69 µM | -65±5% | – | -43±14% | 21.8 ± 7.79 µM | – | – | – | 3.27 ± 1.85 µM | – | – | – | – | –
CCCCCCCCCCn1cc[n+](C)c1.O=S(=O)([O-])C(F)(F)F [1-Decyl-3-methylimidazolium trifluoromethanesulfonate] | -99% | 7.08 µM | -57±16% | 1.67 ± 2.71 µM | -125±47% | 12.1 ± 3.97 µM | – | – | – | – | – | – | – | – | –
Cc1cc2nc3ccc(N(C)C)cc3[s+]c2cc1N.[Cl-] [Toluidine blue] | -44% | 4.89 µM | -50±26% | – | inactive | – | – | – | inactive | 3.48 ± 1.6 µM | – | – | – | – | –
CC(=O)OCCN(CCOC(C)=O)c1ccc(N=Nc2ccc([N+](=O)[O-])cc2C#N)cc1 [Disperse Red 82] | -71% | 6.31 µM | -87±5% | 8 ± 1.45 µM | -59±9% | 11.7 ± 8.76 µM | – | – | – | – | – | – | – | – | –
CC(=O)Nc1ccc(NC(=S)NC(=O)c2ccc(C(C)(C)C)cc2)cc1 [Tenovin-1] | -114% | 3.88 µM | -115±19% | – | -41±18% | 18.4 ± 1.5 µM | – | – | – | 3.27 ± 2.74 µM | – | – | – | – | –
Dodecylphenol | -100% | 3.16 µM | – | 3.1 ± 1.22 µM | -59±7% | 41.1 ± 13.2 µM | – | – | – | – | – | – | – | – | –
COC(=O)C1=C(C)NC(C)=C(C(=O)OCC(C)=O)C1c1ccccc1[N+](=O)[O-] (stereo not drawn) [Aranidipine] | inactive | – | -56±6% | 12.8 ± 3.68 µM | inactive | – | inactive | – | inactive | – | – | – | – | – | –
CCN(C(=O)N(CC)c1ccccc1)c1ccccc1 [N,Nφ-Diethylcarbanilide] | inactive | – | -69±23% | – | -58±11% | 13.1 ± 16.4 µM | inactive | – | – | 21.7 ± 38.2 µM | – | – | – | – | –

Molecule | MMP assays efficacy (%) HepG2 (HepG2 cells [1]; [3]) | IC50 (HepG2 cells [1]; [3]) | MMP assays efficacy (%) qHTS-HepG2 (HepG2 cells [2]) | IC50 (HepG2 cells [2]; [4]) | MMP assays efficacy (%) Rat Hepatocytes (rat primary hepatocytes; [5]) | IC50 (rat primary hepatocytes; [5]) | MMP assays IC50 (µM) HepG2 (HepG2 cells [1]; [3]) | MMP assays IC50 (µM) qHTS-HepG2 (HepG2 cells [2]) | MMP assays IC50 (µM) Rat Hepatocytes (rat primary hepatocytes; [5]) | IC50 (HepG2 cells [2]; [6]) | IC50 (rat primary hepatocytes; Rattus norvegicus, Hepatocyte) | MMP assays efficacy (%) HepG2 (HepG2 cells [1]) | IC50 (HepG2 cells [1]) | IC50 (rat primary hepatocytes) | MMP assays IC50 (µM) Rat Hepatocytes (rat primary hepatocytes)
CCn1c2ccccc2c2cc(N)ccc21.Cl [3-Amino-9-ethylcarbazole hydrochloride] | -38% | 14.1 µM | -93±11% | 35.4 ± 24.5 µM | -53±23% | 56.2 µM | – | – | – | – | – | – | – | – | –
CCCCCCOc1ccccc1C(N)=O [Exalamide] | inactive | – | -73±11% | 9.81 ± 3 µM | -59±17% | – | inactive | – | – | – | 29.2 ± 2.37 µM | – | – | – | –
Nc1nc2ccc([N+](=O)[O-])cc2s1 [Compound 2-Amino-6-nitrobenzothiazole] | -89% | 44.7 µM | -70±17% | 12.7 ± 10.5 µM | -81±29% | 22.7 ± 20.4 µM | – | – | – | – | – | – | – | – | –
Acriflavine hydrochloride | – | – | -131±19% | 0.94 ± 0.44 µM | – | – | – | – | – | – | – | -107% | 0.44 µM | 3.55 ± 1.14 µM | –
CC/C=C\C/C=C\C/C=C\CCCCCCCC(=O)OCC [Ethyl linolenate] | inactive | – | -51±21% | 49.6 ± 36 µM | inactive | – | inactive | – | inactive | – | – | – | – | – | –
c1ccc2c(c1)OCC(C1=NCCN1)O2 (stereo not drawn) [Idazoxan] | inactive | – | -60±9% | – | inactive | – | inactive | – | inactive | 20.6 ± 7.46 µM | – | – | – | – | –
Cc1cc(Nc2ccc(O)cc2)ccc1N | -101% | 14.1 µM | -93±15% | 7.66 ± 0.88 µM | inactive | – | – | – | inactive | – | – | – | – | – | –
CCCCCCCCCOC(=O)c1ccc(O)cc1 [Nonylparaben] | -110% | 7.94 µM | -101±6% | – | inactive | – | – | – | inactive | 4.43 ± 0.3 µM | – | – | – | – | –
Cc1ccc2oc(CN(Cc3ccccc3)C(=O)Nc3c(F)cc(F)cc3F)c(-c3ccc(Cl)cc3)c2c1 | -66% | 56.2 µM | -59±30% | 21 ± 2.43 µM | inactive | – | – | – | inactive | – | – | – | – | – | –
Bis(tributyltin)oxide | – | – | -112±4% | 0.09 ± 0.02 µM | – | – | – | – | – | – | – | -98% | 0.31 µM | – | inactive
CCCCCCCCCCCCCC[P+](CCCCCC)(CCCCCC)CCCCCC.N#C[N-]C#N | -94% | 0.89 µM | -103±9% | – | -81±9% | 31 ± 11.7 µM | – | – | – | 0.39 ± 0.19 µM | – | – | – | – | –
O=C(O)C(=O)Cc1c[nH]c2ccccc12 [Indole-3-pyruvic acid] | -89% | 11.2 µM | -85±21% | – | -72±42% | 21.3 ± 17.9 µM | – | – | – | 28.9 ± 16.7 µM | – | – | – | – | –
Oc1ccc(Cc2ccccc2O)cc1 [2-(4-Hydroxybenzyl)phenol] | -87% | 35.5 µM | -89±11% | 27.5 ± 1.92 µM | inactive | – | – | – | inactive | – | – | – | – | – | –
CCc1cc(SCc2sc(-c3ccc(C(F)(F)F)cc3)nc2CN2CCN(c3ccc(OC)cc3)CC2)ccc1OCC(=O)O | -105% | 31.6 µM | -128±5% | 25.3 ± 5.81 µM | -116±28% | 23.1 ± 15.6 µM | – | – | – | – | – | – | – | – | –
CCCCCCCC[N+](C)(CCCCCCCC)CCCCCCCC.O=S(=O)([O-])C(F)(F)F [Methyltrioctylammonium trifluoromethanesulfonate] | -105% | 2.24 µM | -86±9% | – | -73±33% | 11.4 ± 2.12 µM | – | – | – | 2.16 ± 0.72 µM | – | – | – | – | –
O=C(OCC(COC(=O)c1ccccc1)(COC(=O)c1ccccc1)COC(=O)c1ccccc1)c1ccccc1 | -52% | 7.08 µM | -63±21% | 4.32 ± 8.63 µM | inactive | – | – | – | inactive | – | – | – | – | – | –
